{"source": "patent US20250114367A1", "about": "“METHOD OF TREATING HAIR LOSS DISORDERS” (Sun Pharmaceutical Industries, Inc., priority 2023, published 2025)", "key": {"[1]": {"test_system": "adult subjects with moderate to severe AA", "assay": "Phase III trial: Hospital Anxiety and Depression Scale (HADS)", "assay_type": "in vivo, human", "conditions": "for HADS anxiety scale, LS mean change from baseline / HADS anxiety scale, LS mean treatment group difference from placebo / HADS depression scale, LS mean change from baseline / HADS depression scale, LS mean treatment group difference from placebo: Week 24", "from_the_text": "The Hospital Anxiety and Depression Scale (HADS) is used to measure anxiety and depression in a general medical population of subjects. HADS comprises of 14 items (7 items each for anxiety and depression), with a score ranging between 0 and 21 for the anxiety and depression subscales. Scores between 8 and 10 indicate a moderate presence of symptoms of anxiety and depression, whereas a score greater than 11 indicates a significant number of symptoms of anxiety and depression that likely correspond with a clinical diagnosis. The total HADS score may be regarded as a global measure of psychological distress (Roberts et al, 2001; Johnston et al, 2000). A negative change in a subject's HADS score from a starting timepoint to an end point during treatment, e.g. from baseline to Week 24 of treatment, indicates an improvement in symptoms of anxiety and depression. The HADS questionnaire was completed by subjects at baseline and Week 24. The term “baseline” as used herein refers to the HADS score (or HADS-A or HADS-D score) determined before administration of Compound (I).\n(§1) Approximately 440 adult male and female subjects 18 to 65 years of age, inclusive, with moderate to severe AA participated in the study. Subjects with definitive diagnosis of AA, and at least 50% hair loss, as defined by a SALT score ≥50, who met all of the inclusion criteria and none of the exclusion criteria participated in the study.\n(§2) The Screening Period lasted up to 28 days prior to initiation of study drug. […] Randomization was stratified by scalp hair loss into 1 of the following 2 categories: 1) partial scalp hair loss (SALT ≥50 and <95), 2) complete or near complete scalp hair loss (SALT ≥95).\n(§3) Additional secondary efficacy endpoints included the following: • Relative change in SALT scores from baseline at Weeks 4, 8, 12, 16, 20, and 24. • Percentage of responders (defined as “much improved” or “very much improved”) using the Clinical Global Impression of Improvement (CGI-I) at Weeks 12, 16, 20, and 24. • Percentage of responders (defined as “much improved” or “very much improved”) using the Patient Global Impression of Improvement (PGI-I) at Weeks 12, 16, 20, and 24. • Change from baseline in the Clinical Global Impression of Severity (CGI-S) at Weeks 12, 16, 20, and 24. • Change from baseline in the Patient Global Impression of Severity (PGI-S) at Weeks 12, 16, 20, and 24. • Change from baseline on the Brigham Eyebrow Tool for Alopecia (BETA) score at Weeks 12 and 24. • Change from baseline on the Brigham Eyelash Tool for Alopecia (BELA) score at Weeks 12 and 24. • Percentage of subjects achieving at least a 75% relative reduction in SALT score from baseline at Weeks 12 and 24. • Percentage of subjects achieving at least a 90% relative reduction in SALT score from baseline at Weeks 12 and 24. • Percentage of responders (defined as “satisfied” or “very satisfied”) on the SPRO scale at Weeks 12, 16, and 20. • Change from baseline in the SPRO scale at Weeks 12, 16, 20, and 24. • Percentage of subjects achieving a ≥2-point change from baseline in the SPRO scale at Weeks 12, 16, 20, and 24. • Change from baseline on the individual items of the Hair Quality Patient Reported Outcome (QPRO) scale at Weeks 12, 16, 20, and 24. • Change from baseline in the depression scale of the Hospital Anxiety and Depression Scale (HADS) at Week 24. • Change from baseline in the anxiety scale of the HADS at Week 24. • Percentage of subjects achieving an absolute SALT score of ≤20 at Week 4. • Percentage of subjects achieving an absolute SALT score of ≤10 at Week 24\nChanges from baseline to Week 24 in the depression scale of subjects who were randomized to treatment with deuruxolitinib 8 mg twice daily (BID), deuruxolitinib 12 mg BID, or placebo for 24 weeks were measured. Subjects completed the HADS 14-item questionnaire with 7 items for anxiety (HADS-A) and 7 items for depression (HADS-D)."}, "[2]": {"test_system": "adult subjects with moderate to severe AA", "assay": "Phase III trial: Severity of Alopecia Tool (SALT) score", "assay_type": "in vivo, human", "conditions": "for percentages of participants (responders) stratified by duration of current AA episode: week 24", "protocol": "The SALT score is calculated for a patient/subject by measuring the percentage of hair loss in each of the 4 areas of the scalp and adding the total to achieve a composite score (referred to herein as an absolute SALT score). Hair regrowth is reflected by a decrease in the SALT score.\nas §1, §2\nAssessment of treatment response using SALT for efficacy occurred at 4, 8, 12, 16, 20 and 24 weeks.\nThe primary efficacy endpoint was the percentage of subjects achieving an absolute SALT score of ≤20.\nas §3\n• Clinical presentation compatible with alopecia areata with a current episode lasting at least 6 months and not exceeding 10 years at the time of Screening. Total disease duration greater than 10 years is permitted. • At least 50% scalp hair loss, as defined by a Severity of Alopecia Tool (SALT) score ≥50, at Screening and Baseline. • Willing to comply with the study visits and requirements of the study protocol.\nThis will include but is not limited to: • a. Platelets ≤100×109/L or ≥600×109/L • b. Absolute neutrophil count ≤1.5×109/L • c."}}, "data": [{"smiles": "[2H]C1([2H])C([C@@H](CC#N)n2cc(-c3ncnc4[nH]ccc34)cn2)C([2H])([2H])C([2H])([2H])C1([2H])[2H]", "note": "[CTP-543, (R)-3-(4-(7H-pyrrolo[2,3-d]pyrimidin-4-yl)-1H-pyrazol-1-yl)-3-(cyclopentyl-2,2,3,3,4,4,5,5-d8) propanenitrile]", "values": [{"measurement": "HADS anxiety scale, LS mean change from baseline", "setting": "[1]; 8 mg BID", "result": "−1.1"}, {"measurement": "HADS anxiety scale, LS mean treatment group difference from placebo", "setting": "[1]; 8 mg BID", "result": 0.5}, {"measurement": "HADS depression scale, LS mean change from baseline", "setting": "[1]; 8 mg BID", "result": "−1.2"}, {"measurement": "HADS depression scale, LS mean treatment group difference from placebo", "setting": "[1]; 8 mg BID", "result": 0.8}, {"measurement": "HADS anxiety scale, LS mean change from baseline", "setting": "[1]; 12 mg BID", "result": "−0.9"}, {"measurement": "HADS anxiety scale, LS mean treatment group difference from placebo", "setting": "[1]; 12 mg BID", "result": 0.2}, {"measurement": "HADS depression scale, LS mean change from baseline", "setting": "[1]; 12 mg BID", "result": "−1.5"}, {"measurement": "HADS depression scale, LS mean treatment group difference from placebo", "setting": "[1]; 12 mg BID", "result": 1.1}, {"measurement": "subjects achieving a ≥3-point improvement in the HADS-D score", "setting": "[1]; baseline to Week 24, 8 mg BID", "result": 26.2, "unit": "%"}, {"measurement": "subjects achieving a ≥4-point improvement in the HADS-A score", "setting": "[1]; baseline to Week 24, 8 mg BID", "result": 18.9, "unit": "%"}, {"measurement": "percentage of subjects achieving an absolute SALT score of ≤20", "setting": "[2]; Week 8, 12 mg BID", "result": 2.4, "unit": "%"}, {"measurement": "percentage of subjects achieving an absolute SALT score of ≤20", "setting": "[2]; Week 12, 8 mg BID", "result": 10.5, "unit": "%"}, {"measurement": "percentage of subjects achieving an absolute SALT score of ≤20", "setting": "[2]; Week 12, 12 mg BID", "result": 12.3, "unit": "%"}, {"measurement": "percentage of subjects achieving an absolute SALT score of ≤20", "setting": "[2]; Week 16, 8 mg BID", "result": 20.2, "unit": "%"}, {"measurement": "percentage of subjects achieving an absolute SALT score of ≤20", "setting": "[2]; Week 16, 12 mg BID", "result": 21.1, "unit": "%"}, {"measurement": "percentage of subjects achieving an absolute SALT score of ≤20", "setting": "[2]; Week 20, 12 mg BID", "result": 28.8, "unit": "%"}, {"measurement": "percentage of subjects achieving an absolute SALT score of ≤20", "setting": "[2]; Week 24, 8 mg BID", "result": 33, "unit": "%"}, {"measurement": "percentage of subjects achieving an absolute SALT score of ≤20", "setting": "[2]; Week 24, 12 mg BID", "result": 38.3, "unit": "%"}, {"measurement": "percentage of subjects with an absolute SALT score ≤10", "setting": "[2]; Week 24, 12 mg BID", "result": 26.7, "unit": "%"}, {"measurement": "subjects achieving SALT score ≤20", "setting": "[2]; Week 24, complete or near-complete scalp hair loss, 8 mg BID, 31/156", "result": 20.9, "unit": "%"}, {"measurement": "subjects achieving SALT score ≤20", "setting": "[2]; Week 24, complete or near-complete scalp hair loss, 8 mg BID, 37/184", "result": 20.1, "unit": "%"}, {"measurement": "subjects achieving SALT score ≤20", "setting": "[2]; Week 24, complete or near-complete scalp hair loss, 12 mg BID, 19/79", "result": 26.0}, {"measurement": "subjects achieving SALT score ≤20", "setting": "[2]; Week 24, complete or near-complete scalp hair loss, 12 mg BID, 33/112", "result": 29.5}, {"measurement": "subjects achieving SALT score ≤20", "setting": "[2]; Week 24, partial scalp hair loss at baseline, 8 mg BID, 46/93", "result": 54.1, "unit": "%"}, {"measurement": "subjects achieving SALT score ≤20", "setting": "[2]; Week 24, partial scalp hair loss at baseline, 8 mg BID, 57/134", "result": 42.5, "unit": "%"}, {"measurement": "subjects achieving SALT score ≤20", "setting": "[2]; Week 24, partial scalp hair loss at baseline, 12 mg BID, 27/48", "result": 57.4, "unit": "%"}, {"measurement": "subjects achieving SALT score ≤20", "setting": "[2]; Week 24, partial scalp hair loss at baseline, 12 mg BID, 50/88", "result": 56.8, "unit": "%"}, {"measurement": "hair regrowth vs placebo", "setting": "[2]; two Phase 3 trials, THRIVE-AA1 and THRIVE-AA2", "result": "significant improvements in hair regrowth vs placebo"}, {"measurement": "percentage of subjects achieving an absolute SALT score of ≤20", "setting": "[2]; week 8, 8 mg BID", "result": 2.9, "unit": "%"}, {"measurement": "percentages of participants (responders) stratified by duration of current AA episode", "setting": "[2]; >4 years duration, 12 mg BID, 13/50", "result": 28.9, "unit": "%"}, {"measurement": "percentages of participants (responders) stratified by duration of current AA episode", "setting": "[2]; ≤4 years duration, 8 mg BID, 57/157", "result": 38.3, "unit": "%"}, {"measurement": "percentages of participants (responders) stratified by duration of current AA episode", "setting": "[2]; ≤4 years duration, 12 mg BID, 33/77", "result": 44.0, "unit": "%"}]}]}
